Experimental data published in patent US20110124607A1, “COMPOSITION FOR REGULATION CELLULAR SENESCENCE COMPRISING LYSOPHOSPHATIDIC ACID AND INHIBITOR OF ADENYLYL CYCLASE AS ACTIVE INGREDIENTS” (priority 2008, published 2011).

Assays:
[1] = test system: cyclin D1; test: Immunofluorescent staining of cyclin D1; assay type: cell-based, human; settings: 30 μM LPA
Procedure: FIG. 3 is a set of photographs illustrating the effect of LPA and ACI on the expressions of p21 and cyclin-D1 in young and senescent cells. Particularly, a-f, g-l and m-r are photographs illustrating that sub-cultured young cells (PD 20: Y) and senescent cells (PD 65: S) were serum-starved for 48 hours respectively, followed by treatment of LPA (a-f) and ACI (g-l) singly or together (m-r), and after culturing for 1, 2, and 4 days, the cells were fixed in 4% hydrogen peroxide, and stained with p21waf1/cip1 (A) and cyclin D1 (B) antibodies, followed by confirming immunofluorescence. At this time, nucleus was stained with DAPI.
Coverslips were placed on 24 well plate on which required amounts of young and senescent cells were distributed. Media were eliminated and the treated cells were washed with PBS twice. Then, the cells were fixed with 4% hydrogen peroxide. Non-specific protein staining was blocked using PBS containing 2% BSA (blocking serum). The cells were stained with primary antibody such as anti-AMPKα, anti-p-Thr172-AMPKα, anti-p-Ser485/491-AMPKα, anti-p53, anti-p-Ser15-p53, anti-p21waf1/cip1, and anti-cyclin D1. To stain nucleus, DAPI (1:1000) was also added, followed by observation under Zeiss LSM 510 laser scanning microscope. […]

[2] = test system: p21waf1/cip1; test: Immuno-blotting of p21waf1/cip1; assay type: cell-based, human; settings: for p21 expression after suppressing PKA: senescent cells pre-treated with 10 mM PKA inhibitor Rp-cAMP for one hour; for p21 expression (immuno-blotting): senescent cells, 30 μM LPA, 300 μM ACI, 10 mM AMPKI, 10 mM AICAR
Procedure: (A) and (B): Young and senescent cells were serum-starved for 2 days, followed by treatment with 10 mM of AMPK inhibitor […]) or 10 mM of AMPK activator AICAR(B) for 4 days. Proteins were extracted from the treated cells and the levels of AMPKα and p-Thr172-AMPKα, total p53, p-Ser15-p53 and […] measured by immuno-blotting. (C) and (D): Young cells (C) and senescent cells (D) were treated with 10 mM AMPKI or 10 mM AICAR and cultured for 4 days, followed by measurement of cell proliferation by cell counting. At this time, the experiment was repeated three times (p<0.001). (A) and (B) are photographs illustrating the results of immuno-blotting. Precisely, sub-cultured young cells (PD 18: A) and senescent cells (PD 64: B) were treated with 30 μM of LPA […] and ACI singly or together, followed by further culture for 1, 2, and 4 days. Proteins were extracted from the cultured cells and the levels of AMPKα, […] β-actin were quantified by immuno-blotting. (A) and (B) are photographs illustrating the results of immuno-blotting. Precisely, senescent cells (PD 64) were pre-treated with 10 mM of PKA inhibitor Rp-cAMP for one hour, followed by treatment with LPA(A) or ACI(B). After culturing the cells for 1, 2, and 4 days, proteins were extracted from the cultured cells and the levels of AMPKα, […] β-actin were quantified by immuno-blotting using 45 μg of the protein. To analyse protein expression, human fibroblasts were lysed in cold lysis buffer (25 mM Hepes, pH 8.0, 150 mM NaCl, 1 mM EDTA, 1 mM Na3VO4, 1 mM NaF, 1% Triton X-100 and protease inhibitors), followed by centrifugation at 4° C. at 9,000 rpm for 10 minutes to obtain supernatant. Protein in the extract was quantified […]. SDS-PAGE electrophoresis was performed with equal amount of the protein (45 μg) to separate. The separated protein was transferred onto NC membrane from the electrophoresis gel. Non-specific protein binding was blocked by blocking the blot (transferred NC membrane) using TTBS […] containing 5% skim milk for one hour. Then, antigen-antibody reaction was induced with diluted primary antibody at 4° C. for overnight. The blot was washed with TTBS, followed by reaction with horseradish peroxidase conjugated anti-IgGs diluted in TTBS containing 5% skim milk (1:5000) at room temperature for one hour. The blot was washed again with TTBS to eliminate non-specific binding of antigen-antibody. Photographs were developed/printed on X-ray film (Kodak) using ECL kit (Pierce) containing peroxidase substrate to identify each protein.

[3] = test system: young cells (human fibroblasts); test: Cell proliferation by counting live cells (trypan blue), young cells; assay type: cell-based; settings: serum-starved 2 days, counted day 1, 2, 4, 30 μM LPA, 300 μM ACI, 10 mM AMPKI, 10 mM AICAR
Procedure: (§1) Human fibroblasts were prepared by primary culture of foreskin of a newborn baby (Boyce and Ham, 1983). The primary culture was performed in DMEM supplemented with 10% FBS and 1% antibiotics. The protein contents of young cells from the early stage of sub-culture, with a population doubling (PD) of less than 25, were compared to those of at least PD 65-70 senescent cells. […] In senescent cells, the activity of beta-galactosidase was increased and cell proliferation was reduced (Yeo et al., 2000).
(§2) Prior to LPA and ACI treatment, cells were grown for 1-2 days to 60-70% sub-confluence in DMEM-containing culture medium, and then serum-starved to quiescence (that is Go/G1 arrest) by incubation in a serum-free medium containing 0.1% bovine serum albumin (BSA) for 2 days. Young and senescent cells were treated with LPA, ACI, LPA+ACI, AMPKI and AICAR, respectively. Live cells were measured after staining the cells with trypan blue on day 1, day 2 and day 4 to confirm cell proliferation.
(§3) Cell proliferation and cAMP level were increased by LPA in senescent cells (Yeo et al., 2002). The AC inhibitor (ACI) was added to reduce cAMP which had been increased by LPA. And then, cell proliferation was investigated. Cells were cultured in serum-free medium for 2 days to arrest them in G0/G1 phase. Then, the cells were treated with LPA, ACI or LPA+ACI. Total cell number was measured on day 1, day 2 and day 4, or the cells entered into S phase were counted to evaluate cell proliferation. When young cells were treated with 300 μM of ACI, cell proliferation was reduced, compared with control (FIG. 1A). In the meantime, when senescent cells were treated with 300 μM of ACI, cell proliferation was increased, compared with control (FIG. 1B).

[4] = test system: senescent cells (human fibroblasts); test: Cell proliferation by counting live cells (trypan blue), senescent cells; assay type: cell-based; settings: serum-starved 2 days, counted day 1, 2, 4, 30 μM LPA, 300 μM ACI, 10 mM AMPKI, 10 mM AICAR
Procedure: as §1, §2, §3

| Compound | cyclin D1 expression (immunofluorescence) ([1]; senescent cells, 300 μM ACI) | p21 expression after suppressing PKA [2] | p21 expression (immuno-blotting) [2] | cell proliferation (cell number) compared with control [3] | cell proliferation (cell number) compared with control [4] | cyclin D1 expression (immunofluorescence) ([1]; young cells) |
| --- | --- | --- | --- | --- | --- | --- |
| Nc1ncnc2c1ncn2C1CCCO1 (stereo not shown) [ACI, 9-(tetrahydro-2′-furyl)adenine] | reduced | not changed | reduced | reduced | increased | – |
| lysophosphatidic acid [LPA] | – | not changed at all | reduced | increased | increase | decrease |
